Test [1] addresses T1, GABAA receptor subtype (α1, β2, and γ2S subunits) (Homo sapiens, UniProt P14867+P18507+P47870).
T1 construct: expressed in transfected cells; host or cells: Xenopus laevis oocytes (Ecocyte), cRNA-injected
Kind of test: Functional GABAA receptor assay: modulation of GABA-induced chloride currents (IGABA), two-microelectrode voltage clamp in Xenopus laevis oocytes. Conditions: 100 µg/mL, isolated compounds; for IGABA potentiation: GABA EC10, mean ± S.E.M. The class given is cell-based. The method, then: The effects of both fractions and isolated compounds from the PS and PL extracts were determined on GABA-induced chloride currents through the predominantly occurring GABAA receptor subtype (comprising α1, β2, and γ2S subunits). GABAA receptors were heterologously expressed in Xenopus laevis (Grade I–II) oocytes as described previously. The fractions and compounds were tested at a concentration of 100 µg/mL. For the fractions, a 100 µg/mL concentration was used in assessing their IGABA modulatory potential because previous studies have also used the same concentration to assess the IGABA modulatory potential of plant extracts and/or fractions in a similar experimental model. For the compounds, we tested their IGABA modulatory potential at 100 µg/mL to maintain a consistent concentration as the fractions, which provides a comparative perspective about the efficacy of the compounds relative to the fractions.
In brief, defolliculated oocytes were obtained from Ecocyte (Dortmund, Germany) and injected with 50–75 nL of nuclease-free water containing a mixture (ratio 1:1:10) of cRNAs encoding for the major GABAA receptor subtype (α1, β2, and γ2S; concentrations ranging between 100 and 2000 ng/μL/subunit) using a Nanoject III microinjector (Drummond Scientific Company, Broomall, PA, USA). Oocytes were stored at 18 °C in ND96 solution composed of 90 mM NaCl, 1 mM KCl, 1 mM MgCl2·6H2O, 1 mM CaCl2, and 5 mM 2-(4-(2-hydroxyethyl)-1-piperazinyl)ethanesulfonic acid (HEPES), with pH adjusted to 7.4 using 1 M NaOH and supplemented with 100 U/mL penicillin and 10 µg/mL streptomycin. Functional characterisation was then carried out 1–3 days post-injection using two-microelectrode voltage-clamp (TEVC) recordings holding oocytes at −70 mV using a TURBO TEC 03C amplifier (NPI Electronic, Tamm, Germany) connected to an Axon Digidata 1440A digitiser (Molecular Devices, Sunnyvale, CA, USA). Data acquisition was performed using pCLAMP software version 10.3 (Molecular Devices), and current traces were analysed offline. Microelectrodes were filled with 2 M KCl and had resistances between 1 and 3 MΩ. GABA and test compounds were applied using a TECAN Miniprep 60 (npi electronic, Tamm, Germany), permitting semi-automation of the experiments coupled to a fast perfusion system. The oocyte-containing chamber was perfused with 200 µL GABA-containing solutions at a volume rate between 150 and 200 µL/s to elicit chloride currents through GABAA receptors (IGABA). Modulation of IGABA by the compounds was measured at a GABA concentration eliciting 10% of the maximal current amplitude (EC10), peak amplitudes were measured, and the effect was calculated using the following formula: IGABA potentiation%=Amplitude IGABA−sample−Amplitude IGABA−control/Amplitude IGABA−control×100
IGABA+Sample is the current induced by co-application of GABA and the tested sample, while IGABA−control is the current induced by application of GABA alone.

For another test, the target named is α-glucosidase. Kind of test: In vitro α-glucosidase-inhibitory assay. The class given is biochemical.

pIC50: −log10 of the molar value.

T1 sequence (P14867 28-456): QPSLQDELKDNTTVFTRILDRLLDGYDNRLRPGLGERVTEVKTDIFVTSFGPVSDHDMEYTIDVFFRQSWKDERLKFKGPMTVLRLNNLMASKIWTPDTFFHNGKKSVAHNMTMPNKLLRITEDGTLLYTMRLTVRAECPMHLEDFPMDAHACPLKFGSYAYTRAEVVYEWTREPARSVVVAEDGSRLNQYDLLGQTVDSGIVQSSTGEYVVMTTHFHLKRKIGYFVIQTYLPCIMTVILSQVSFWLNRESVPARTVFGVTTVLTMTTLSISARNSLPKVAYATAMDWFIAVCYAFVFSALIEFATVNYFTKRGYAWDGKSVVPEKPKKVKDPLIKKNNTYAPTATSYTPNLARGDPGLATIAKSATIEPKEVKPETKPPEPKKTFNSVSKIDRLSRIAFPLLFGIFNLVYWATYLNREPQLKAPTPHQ
T1 sequence (P47870 25-512 limits assumed): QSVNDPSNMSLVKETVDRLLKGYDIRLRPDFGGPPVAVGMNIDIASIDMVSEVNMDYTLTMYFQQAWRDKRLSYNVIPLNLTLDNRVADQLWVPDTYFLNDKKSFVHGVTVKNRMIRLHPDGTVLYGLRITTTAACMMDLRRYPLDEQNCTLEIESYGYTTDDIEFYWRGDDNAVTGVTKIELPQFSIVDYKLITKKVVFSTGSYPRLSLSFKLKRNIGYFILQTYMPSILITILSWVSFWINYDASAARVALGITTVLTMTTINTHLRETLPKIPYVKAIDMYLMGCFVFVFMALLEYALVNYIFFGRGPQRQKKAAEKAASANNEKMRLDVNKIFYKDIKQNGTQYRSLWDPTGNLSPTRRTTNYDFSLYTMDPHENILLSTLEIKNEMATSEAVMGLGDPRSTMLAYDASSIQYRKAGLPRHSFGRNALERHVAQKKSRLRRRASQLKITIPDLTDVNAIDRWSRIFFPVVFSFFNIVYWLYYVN
T1 sequence (P18507 40-467 isoform P18507-1 limits assumed): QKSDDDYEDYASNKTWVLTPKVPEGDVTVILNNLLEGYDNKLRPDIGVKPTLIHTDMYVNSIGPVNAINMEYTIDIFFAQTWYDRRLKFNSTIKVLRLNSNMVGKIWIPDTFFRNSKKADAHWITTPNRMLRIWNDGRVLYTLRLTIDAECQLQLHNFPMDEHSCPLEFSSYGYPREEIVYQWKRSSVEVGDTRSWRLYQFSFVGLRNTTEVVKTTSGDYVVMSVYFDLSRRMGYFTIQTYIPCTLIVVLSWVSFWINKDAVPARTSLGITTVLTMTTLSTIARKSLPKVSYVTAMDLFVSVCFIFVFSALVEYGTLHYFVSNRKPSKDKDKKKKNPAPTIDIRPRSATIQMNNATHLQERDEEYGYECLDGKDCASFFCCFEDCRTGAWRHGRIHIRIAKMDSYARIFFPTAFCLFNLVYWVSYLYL
Method for α-glucosidase: The alpha-glucosidase-inhibitory potency of the fractions was assessed by determining whether the fractions can inhibit the activity of α-glucosidase, a carbohydrate-digesting enzyme. The fractions were tested at a concentration of 60 µg/mL.
A previous method [66] was adopted to perform the glucosidase inhibition assay. It was performed on a 96-well transparent plate. […] Next, 50 µL of 10 mM 4-nitrophenyl-β-D-glucopyranoside substrate solution (dissolved in 100 mM phosphate buffer, pH 6.8) was added, and incubation continued for an additional 20 min under the same incubation conditions. After incubation, the enzyme-substrate reaction was stopped by adding 100 µL of a 0.1 M Na2CO3 solution, and absorbance was measured at 405 nm. The absorbances were blanked using the sample and solvent blanks. The enzyme inhibition activity of the samples was computed using the formula below: Enzyme inhibition activity%=Absorbance of control−Absorbance of test/Absorbance of control×100

Turning to `COc1cc2c(=O)c3ccccc3oc2c(OC)c1O` [Compound 2, 3-hydroxy-2,4-dimethoxy-9H-xanthen-9-one], in test [1], the IGABA potentiation stood at 36 ± 9% and the “Effect on IGABA (in words)” value is given as “significantly enhanced IGABA”.

For `COc1cc([C@@H]2Oc3c(OC)cc4c(=O)c5ccccc5oc4c3O[C@H]2CO)ccc1O` (relative stereo) [Compound 3, trans-3-(4-hydroxy-3-methoxyphenyl)-2-(hydroxymethyl)-5-methoxy-2,3-dihydro-7H-[1,4]dioxino[2,3-c]xanthen-7-one], the pIC50 at α-glucosidase (dose-dependent assay 1.5625–100 µM, isolated compound and acarbose, read-out: α-glucosidase inhibition IC50) is 4.35. In test [1], the IGABA potentiation turned out to be 5 ± 7% and the “Effect on IGABA (in words)” value is “inactive”.

Regarding `C[C@H]1O[C@H](O[C@H]2[C@H](O)[C@@H](O)[C@@H](O[C@H]3[C@H](O)[C@@H](O)C(O)O[C@@H]3CO)O[C@@H]2CO)[C@H](O)[C@@H](O)[C@@H]1N[C@H]1C=C(CO)[C@@H](O)[C@H](O)[C@H]1O` (some centres unmarked) [Acarbose, acarbose, reference compound], in the test on α-glucosidase (tested at 60 μg/mL, fractions from MeOH extract of PS (plant stem) and acarbose, NAD = no activity detected), the “Glucosidase-Inhibitory Activity (%)” value is 94.3 ± 1.86%.

Regarding `COc1cc2c(=O)c3ccccc3oc2c(O)c1OC` [Compound 1, 4-hydroxy-2,3-dimethoxy-9H-xanthen-9-one], in test [1], the IGABA potentiation is reported as 65 ± 13% and the “Effect on IGABA (in words)” value is given as “significantly enhanced IGABA”.

For the origin of these results see paper PMC12430133, “GABAergic and α-Glucosidase-Inhibitory Potentials of Fractions and Isolated Xanthones from Hypericum revolutum Vahl subsp. revolutum” (Molecules, 2025).
